Source: patent US20050101595A1, “N-containing cycloalkyl-substituted amino-thiazole derivatives and pharmaceutical compositions for inhibiting cell proliferation and methods for their use” (PFIZER INC., priority 2003, published 2005)
Structures can show the parent of a compound that is named as a salt. Where two headings read alike, the source gives them in different places.

Key:
[1] = target: human CDK4 and genetically truncated (1-264) cyclin D3 (Homo sapiens, UniProt P11802); assay: Inhibition of CDK4/Cyclin D Retinoblastoma Kinase Activity; assay type: biochemical; settings: for Ki: apparent Ki, CDK4/truncated cyclin D3, Rb fragment substrate, 25 μM ATP
Outline: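 Human CDK4/truncated cyclin D3 (1-264) complex from baculovirus-infected insect cells, 5 nM, phosphorylating Rb fragment (residues 386-928, His-tagged) with 25 μM [32/33P]ATP in HEPES pH 7.4, MgCl2, 2% DMSO at 30° C. for 20 min (60 min for tight binders). Filter-captured radioactivity by phosphorimager; apparent Ki from competitive or tight-binding fits.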

CDK2/Cyclin A = CDK2/Cyclin A (Homo sapiens, UniProt P24941); assay: Inhibition of CDK2/Cyclin A Retinoblastoma Kinase Activity; assay type: biochemical; settings: for Ki: apparent Ki, CDK2/proteolyzed cyclin A, Rb fragment substrate, 25 μM ATP; for CDK2 % Inhibition At 0.03 μM: Table 2
Outline: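 Baculovirus-expressed CDK2 complexed with proteolyzed cyclin A (10 or 19 nM), Rb fragment substrate, 25 μM [32P/33P]ATP, HEPES pH 7.4, 30 °C for 60 or 75 min under initial-rate conditions. Filter capture and phosphorimager readout; apparent Ki fitted to competitive or tight-binding competitive inhibition.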

HCT-116 cell line = assay: Inhibition of cell growth, tetrazolium salt (MTT) assay; assay type: cell-based; settings: for IC50: Homo sapiens, HCT-116, 120 h, MTT, three to five days, read-out: HCT-116 IC50; for HCT-116 % Inhibition at 0.25 μM: 0.25 μM compound
Outline: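 First, cells were seeded in McCoy's 5A medium and held 4 h. Next, inhibitor concentrations in 0.5% (v/v) DMSO were applied for three to five days at 37° C, 5% CO2. Finally, after 4 h with 0.2 mg/mL MTT and medium removal, solubilized formazan was measured at 540 nm.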

[2] = 0.1 μM compound, HCT-116, Table 4
[3] = 0.1 μM compound, HCT-116, Table 3

Sequence of human CDK4 and genetically truncated (1-264) cyclin D3 (P11802 whole entry, the tested form may be a part): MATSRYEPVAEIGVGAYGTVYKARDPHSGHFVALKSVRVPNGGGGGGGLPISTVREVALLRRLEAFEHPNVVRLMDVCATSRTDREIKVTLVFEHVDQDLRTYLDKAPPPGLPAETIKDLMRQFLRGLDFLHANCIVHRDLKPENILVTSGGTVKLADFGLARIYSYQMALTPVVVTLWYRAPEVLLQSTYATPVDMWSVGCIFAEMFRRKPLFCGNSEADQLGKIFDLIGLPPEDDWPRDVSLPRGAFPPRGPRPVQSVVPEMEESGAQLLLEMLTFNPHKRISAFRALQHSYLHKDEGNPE
Sequence of human CDK4 and genetically truncated (1-264) cyclin D3 (P30281 1-264 partner): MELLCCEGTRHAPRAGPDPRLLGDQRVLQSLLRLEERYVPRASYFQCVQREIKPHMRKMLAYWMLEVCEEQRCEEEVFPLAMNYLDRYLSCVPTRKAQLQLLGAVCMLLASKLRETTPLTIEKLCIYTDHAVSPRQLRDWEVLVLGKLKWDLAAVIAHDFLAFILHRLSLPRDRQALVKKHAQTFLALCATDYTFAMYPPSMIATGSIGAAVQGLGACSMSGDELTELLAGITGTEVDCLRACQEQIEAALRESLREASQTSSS

SMILES	Ki [1]	Ki (CDK2/Cyclin A)	IC50 (HCT-116 cell line; first HCT-116 column (c4))	IC50 (HCT-116 cell line; second HCT-116 column (c5))	CDK4 % Inhibition at 0.03 μM ([1]; at 0.03 μM)	CDK2 % Inhibition at 0.03 μM (CDK2/Cyclin A; at 0.03 μM)	HCT-116 % Inhibition at 0.1 μM (HCT-116 cell line; HCT-116 cells, at 0.1 μM)	HCT-116 5 Inhibition at 0.25 μM (HCT-116 cell line; HCT-116 cells)	other results
CN(C)c1ccc(S(=O)(=O)N2CCC(Nc3nc(N)c(C(=O)c4c(F)cccc4F)s3)CC2)cn1 [Example F19, 1-{4-Amino-2-[1-(6-dimethylamino-pyridine-3-sulfonyl)-piperidin-4-ylamino]-thiazol-5-yl}-1-(2,6-difluoro-phenyl)-methanone]	1.7 nM	3.2 nM	48 nM	200 nM	–	–	–	–	–
CN(C)C(=O)N1CCC(Nc2nc(N)c(C(=O)c3c(F)cccc3F)s2)CC1 [Example Q2]	–	–	–	–	–	–	–	–	CDK4 % Inhibition at 0.03 μM ([1]; 0.03 μM compound, Table 4): 13%; CDK2 % Inhibition at 0.03 μM (CDK2/Cyclin A; 0.03 μM compound, Table 4): −43%; HCT-116 % Inhibition at 0.1 μM (HCT-116 cell line; [2]): 0.71%; HCT-116 % Inhibition at 0.25 μM (HCT-116 cell line; HCT-116, Table 4): 43%
CN(C)CCOc1ccc(S(=O)(=O)N2CCC(Nc3nc(N)c(C(=O)c4c(F)cccc4F)s3)CC2)cn1 [Example H3, 1-(4-Amino-2-{1-[6-(2-dimethylamino-ethoxy)-pyridine-3-sulfonyl]-piperidin-4-ylamino}-thiazol-5-yl)-1-(2,6-difluoro-phenyl)-methanone Hydrochloride]	0.67 nM	1.8 nM	51 nM	320 nM	–	–	–	–	–
Cc1cccc(C(=O)N2CCC(Nc3nc(N)c(C(=O)c4c(F)cccc4F)s3)CC2)c1 [Example Q25]	–	–	–	–	–	–	–	–	CDK4 % Inhibition at 0.03 μM ([1]; 0.03 μM compound, Table 4): 60%; CDK2 % Inhibition at 0.03 μM (CDK2/Cyclin A; 0.03 μM compound, Table 4): 30%; HCT-116 % Inhibition at 0.1 μM (HCT-116 cell line; [2]): 31%; HCT-116 % Inhibition at 0.25 μM (HCT-116 cell line; HCT-116, Table 4): 85%
CCOc1ccccc1C(=O)N1CCC(Nc2nc(N)c(C(=O)c3c(F)cccc3F)s2)CC1 [Example R119]	–	–	–	–	31%	27%	3%	53	–
COc1cccc(CC(=O)N2CCC(Nc3nc(N)c(C(=O)c4c(F)cccc4F)s3)CC2)c1 [Example Q79]	–	–	–	–	–	–	–	–	CDK4 % Inhibition at 0.03 μM ([1]; 0.03 μM compound, Table 4): 59%; CDK2 % Inhibition at 0.03 μM (CDK2/Cyclin A; 0.03 μM compound, Table 4): 51%; HCT-116 % Inhibition at 0.1 μM (HCT-116 cell line; [2]): 5%; HCT-116 % Inhibition at 0.25 μM (HCT-116 cell line; HCT-116, Table 4): 33%
Nc1nc(NC2CCN(C(=O)Nc3ccccc3F)CC2)sc1C(=O)c1c(F)cccc1F [Example O5]	–	–	–	–	–	–	–	–	CDK4 % Inhibition at 0.03 μM ([1]; 0.03 μM compound, Table 2): 3%; CDK2 % Inhibition At 0.03 μM (CDK2/Cyclin A; 0.03 μM compound): 35%; HCT-116 % Inhibition at 0.25 μM (HCT-116 cell line; HCT-116, Table 2): 31%
COc1ccc(Cl)cc1S(=O)(=O)N1CCC(Nc2nc(N)c(C(=O)c3c(F)cccc3F)s2)CC1 [Example P56]	–	–	–	–	–	–	–	–	CDK4 % Inhibition at 0.03 μM ([1]; 0.03 μM compound, Table 3): 26%; CDK2 % Inhibition at 0.03 μM (CDK2/Cyclin A; 0.03 μM compound, Table 3): 21%; HCT-116 % Inhibition at 0.1 μM (HCT-116 cell line; [3]): 20%; HCT-116 % Inhibition at 0.25 μM (HCT-116 cell line; HCT-116, Table 3): 34%
Nc1nc(NC2CCN(C(=O)c3cccc(Cl)c3)CC2)sc1C(=O)c1c(F)cccc1F [Example R132]	–	–	–	–	55%	28%	15%	60	–
COC(=O)c1ccc(C(=O)N2CCC(Nc3nc(N)c(C(=O)c4c(F)cccc4F)s3)CC2)cc1 [Example C4, 4-{4-[4-Amino-5-(2,6-difluoro-benzoyl)-thiazol-2-ylamino]-piperidine-1-carbonyl}-benzoic Acid Methyl Ester]	11 nM	81 nM	800 nM	2000 nM	–	–	–	–	–
Cc1ccc(NC(=O)N2CCC(Nc3nc(N)c(C(=O)c4c(F)cccc4F)s3)CC2)cc1C [Example O48]	–	–	–	–	–	–	–	–	CDK4 % Inhibition at 0.03 μM ([1]; 0.03 μM compound, Table 2): 11%; CDK2 % Inhibition At 0.03 μM (CDK2/Cyclin A; 0.03 μM compound): 28%; HCT-116 % Inhibition at 0.25 μM (HCT-116 cell line; HCT-116, Table 2): 16%
Nc1nc(NC2CCN(C(=O)C3CC3)CC2)sc1C(=O)c1c(F)cccc1F [Example R89]	–	–	–	–	5%	3%	0%	46	–
Nc1nc(NC2CCN(C(=O)CCC3CCCC3)CC2)sc1C(=O)c1c(F)cccc1F [Example R97]	–	–	–	–	17%	13%	0%	39	–
Nc1nc(NC2CCN(S(=O)(=O)c3ccc(CCNc4cccc(O)c4)nc3)CC2)sc1C(=O)c1c(F)cccc1F [Example N6, [4-Amino-2-(1-{6-[2-(3-hydroxy-phenylamino)-ethyl]-pyridine-3-sulfonyl}-piperidin-4-ylamino)-thiazol-5-yl]-(2,6-difluoro-phenyl)-methanone Hydrochloride Salt.]	0.31 nM	0.3 nM	410 nM	1300 nM	–	–	–	–	–
COc1cc(C(=O)N2CCC(Nc3nc(N)c(C(=O)c4c(F)cccc4F)s3)CC2)cc(OC)c1C [Example D17, {4-Amino-2-[1-(3,5-dimethoxy-4-methyl-benzoyl)-piperidin-4-ylamino]-thiazol-5-yl-}(2,6-difluoro-phenyl)-methanone]	18 nM	69 nM	57 nM	160 nM	–	–	–	–	–
Nc1nc(NC2CCN(C(=O)c3ccc(-c4ccccc4)cc3)CC2)sc1C(=O)c1c(F)cccc1F [Example R149]	–	–	–	–	51%	28%	11%	43	–
Nc1nc(NC2CCN(S(=O)(=O)Cc3ccccc3)CC2)sc1C(=O)c1c(F)cccc1F [Example P25]	–	–	–	–	–	–	–	–	CDK4 % Inhibition at 0.03 μM ([1]; 0.03 μM compound, Table 3): 82%; CDK2 % Inhibition at 0.03 μM (CDK2/Cyclin A; 0.03 μM compound, Table 3): 62%; HCT-116 % Inhibition at 0.1 μM (HCT-116 cell line; [3]): 8%; HCT-116 % Inhibition at 0.25 μM (HCT-116 cell line; HCT-116, Table 3): 33%
Nc1nc(NC2CCN(C(=O)c3ccc(Cl)nc3)CC2)sc1C(=O)c1c(F)cccc1F [Example C9, 1-(4-Amino-2-{1-[-(6-chloro-pyridin-3-yl)-methanoyl]-piperidin-4-ylamino}-thiazol-5-yl)-1-(2,6-difluoro-phenyl)-methanone]	20 nM	67 nM	590 nM	1300 nM	–	–	–	–	–
CN(C)CCN(C)c1ncc(S(=O)(=O)N2CCC(Nc3nc(N)c(C(=O)c4c(F)cccc4F)s3)CC2)cc1Br [Example G24, 1-[4-Amino-2-(1-{5-bromo-6-[(2-dimethylamino-ethyl)-methyl-amino]-pyridine-3-sulfonyl}-piperidin-4-ylamino)-thiazol-5-yl]-1-(2,6-difluoro-phenyl)-methanone]	0.48 nM	0.85 nM	290 nM	620 nM	–	–	–	–	–
COc1cc(Cl)ccc1C(=O)N1CCC(Nc2nc(N)c(C(=O)c3c(F)cccc3F)s2)CC1 [Example R145]	–	–	–	–	53%	45%	0%	38	–
Nc1nc(NC2CCN(S(=O)(=O)c3c(Cl)cc(Cl)cc3Cl)CC2)sc1C(=O)c1c(F)cccc1F [Example P57]	–	–	–	–	–	–	–	–	CDK4 % Inhibition at 0.03 μM ([1]; 0.03 μM compound, Table 3): 6%; CDK2 % Inhibition at 0.03 μM (CDK2/Cyclin A; 0.03 μM compound, Table 3): 23%; HCT-116 % Inhibition at 0.1 μM (HCT-116 cell line; [3]): 9%; HCT-116 % Inhibition at 0.25 μM (HCT-116 cell line; HCT-116, Table 3): 31%
COC(=O)c1ccc(C(=O)N2CCC(Nc3nc(N)c(C(=O)c4c(F)cccc4F)s3)CC2)cc1 [Example R151]	–	–	–	–	39%	24%	0%	43	–
Nc1nc(NC2CCN(S(=O)(=O)c3ccc(N4CC[S+]([O-])CC4)nc3)CC2)sc1C(=O)c1c(F)cccc1F [Example G4, 1-(4-Amino-2-{1-[6-(1-oxo-thiomorpholine-4-yl)-pyridine-3-sulfonyl]-piperidin-4-ylamino}-thiazol-5-yl)-1-(2,6-difluoro-phenyl)-methanone]	0.94 nM	1.4 nM	1500 nM	5000 nM	–	–	–	–	–
